Results from ChEMBL document CHEMBL4619739, “Synthesis and biological evaluation of heterocyclic bis-aryl amides as novel Src homology 2 domain containing protein tyrosine phosphatase-2 (SHP2) inhibitors” (Bioorg Med Chem Lett, 2020).
Activity calls are given as the source filed them. The rule behind the calls is not given here.

Key:
[1] = molecular target: T1, Tyrosine-protein phosphatase non-receptor type 1 (Homo sapiens, UniProt P18031); experiment: Inhibition of GST-tagged PTP1B (unknown origin) using pNPP as substrate measured for 3 mins by colorimetric assay
T1 sequence (P18031 whole entry): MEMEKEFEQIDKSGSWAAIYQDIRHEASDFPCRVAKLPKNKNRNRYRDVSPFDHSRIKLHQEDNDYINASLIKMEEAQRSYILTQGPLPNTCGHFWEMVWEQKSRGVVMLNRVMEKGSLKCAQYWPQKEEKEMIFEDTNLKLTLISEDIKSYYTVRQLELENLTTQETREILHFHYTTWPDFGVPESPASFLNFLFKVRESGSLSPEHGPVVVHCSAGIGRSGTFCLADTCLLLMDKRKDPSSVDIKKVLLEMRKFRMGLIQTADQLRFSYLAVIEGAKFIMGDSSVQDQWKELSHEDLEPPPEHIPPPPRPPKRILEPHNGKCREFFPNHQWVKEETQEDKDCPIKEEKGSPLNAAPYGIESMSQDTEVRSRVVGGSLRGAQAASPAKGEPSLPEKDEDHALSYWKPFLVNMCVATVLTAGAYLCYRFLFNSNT

[2] = molecular target: T2, Tyrosine-protein phosphatase non-receptor type 11 (Homo sapiens) (UniProt Q06124); experiment: Inhibition of SHP2 (unknown origin) at 20 ug/ml using 3-o-methylfluorescein phosphate as substrate by fluorescence assay relative to control
T2 sequence (whole entry): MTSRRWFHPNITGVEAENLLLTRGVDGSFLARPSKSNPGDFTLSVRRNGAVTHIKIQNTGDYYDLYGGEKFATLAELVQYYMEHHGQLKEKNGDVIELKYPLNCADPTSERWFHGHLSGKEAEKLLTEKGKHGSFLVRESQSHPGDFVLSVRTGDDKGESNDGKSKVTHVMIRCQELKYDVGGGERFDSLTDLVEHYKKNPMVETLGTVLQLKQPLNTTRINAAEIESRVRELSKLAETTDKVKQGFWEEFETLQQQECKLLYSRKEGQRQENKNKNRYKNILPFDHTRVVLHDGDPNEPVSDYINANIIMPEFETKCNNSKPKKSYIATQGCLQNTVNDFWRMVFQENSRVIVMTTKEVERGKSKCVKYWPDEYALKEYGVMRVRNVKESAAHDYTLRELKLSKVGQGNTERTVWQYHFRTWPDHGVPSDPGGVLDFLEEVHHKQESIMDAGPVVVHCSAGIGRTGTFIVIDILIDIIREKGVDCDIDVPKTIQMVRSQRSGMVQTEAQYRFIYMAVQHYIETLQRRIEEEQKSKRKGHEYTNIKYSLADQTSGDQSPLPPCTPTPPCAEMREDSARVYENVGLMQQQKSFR

[3] = molecular target: T3, Tyrosine-protein phosphatase non-receptor type 11 (Homo sapiens, UniProt Q06124); experiment: Inhibition of SHP2 (unknown origin) using 3-o-methylfluorescein phosphate as substrate by fluorescence assay
T3 sequence (Q06124 whole entry): T2 sequence (whole entry)

[4] = molecular target: T4, Tyrosine-protein phosphatase non-receptor type 1 (Homo sapiens) (UniProt P18031); experiment: Inhibition of GST-tagged PTP1B (unknown origin) at 20 ug/ml using pNPP as substrate measured for 3 mins by colorimetric assay relative to control
T4 sequence (whole entry): T1 sequence (P18031 whole entry)

[5] = species on record: Homo sapiens; experiment: Selectivity index, ratio of IC50 for SHP1 (unknown origin) to IC50 for SHP2 (unknown origin)
[6] = molecular target: T5, Tyrosine-protein phosphatase non-receptor type 2 (Homo sapiens, UniProt P17706); experiment: Inhibition of GST-tagged TCPTP (unknown origin) using pNPP as substrate measured for 3 mins by colorimetric assay
T5 sequence (P17706 whole entry): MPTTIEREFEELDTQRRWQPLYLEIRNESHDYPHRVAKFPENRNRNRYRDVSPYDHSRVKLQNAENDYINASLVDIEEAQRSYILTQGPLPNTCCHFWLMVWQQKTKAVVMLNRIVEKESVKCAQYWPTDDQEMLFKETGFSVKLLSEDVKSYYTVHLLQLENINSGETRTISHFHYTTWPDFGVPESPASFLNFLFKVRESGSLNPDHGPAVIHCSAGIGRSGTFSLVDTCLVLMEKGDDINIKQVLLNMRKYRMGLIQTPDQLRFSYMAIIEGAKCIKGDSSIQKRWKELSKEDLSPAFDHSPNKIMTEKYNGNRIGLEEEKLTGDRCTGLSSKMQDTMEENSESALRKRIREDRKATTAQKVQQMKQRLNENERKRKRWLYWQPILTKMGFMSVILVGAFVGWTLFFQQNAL

[7] = molecular target: T2, Tyrosine-protein phosphatase non-receptor type 11 (Homo sapiens); experiment: Fast binding inhibition of SHP2 (unknown origin) using DiFMUP as substrate by enzyme kinetics assay
[8] = molecular target: T2, Tyrosine-protein phosphatase non-receptor type 11 (Homo sapiens); experiment: Competitive inhibition of SHP2 (unknown origin) assessed as increase in Km with constant Vmax using DiFMUP as substrate by Lineweaver-Burk plot analysis
[9] = molecular target: Tyrosine-protein phosphatase non-receptor type 6 (Homo sapiens) (UniProt P29350); experiment: Inhibition of SHP1 (unknown origin) at 20 ug/ml using 3-o-methylfluorescein phosphate as substrate by fluorescence assay relative to control
Tyrosine-protein phosphatase non-receptor type 6 (Homo sapiens), sequence (P29350 whole entry): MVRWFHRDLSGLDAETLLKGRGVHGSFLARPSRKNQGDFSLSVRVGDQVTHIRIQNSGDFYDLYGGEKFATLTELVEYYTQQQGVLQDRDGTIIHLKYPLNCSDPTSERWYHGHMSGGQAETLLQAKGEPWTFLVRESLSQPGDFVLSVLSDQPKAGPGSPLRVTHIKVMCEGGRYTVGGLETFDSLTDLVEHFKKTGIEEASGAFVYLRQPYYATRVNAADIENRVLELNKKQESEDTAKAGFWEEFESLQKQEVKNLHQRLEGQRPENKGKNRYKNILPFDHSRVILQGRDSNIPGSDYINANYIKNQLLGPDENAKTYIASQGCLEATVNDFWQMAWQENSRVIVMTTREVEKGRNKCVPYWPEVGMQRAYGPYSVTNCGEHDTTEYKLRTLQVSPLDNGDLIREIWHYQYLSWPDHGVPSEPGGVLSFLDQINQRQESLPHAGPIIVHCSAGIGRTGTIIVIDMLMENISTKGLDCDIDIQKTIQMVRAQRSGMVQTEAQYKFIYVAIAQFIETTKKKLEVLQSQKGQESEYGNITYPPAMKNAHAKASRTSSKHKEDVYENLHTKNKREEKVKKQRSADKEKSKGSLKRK

[10] = molecular target: T2, Tyrosine-protein phosphatase non-receptor type 11 (Homo sapiens); experiment: Reversible inhibition of SHP2 (unknown origin) using DiFMUP as substrate by enzyme kinetics based dialysis assay
[11] = species on record: Homo sapiens; experiment: Selectivity index, ratio of IC50 for SHP2 (unknown origin) to IC50 for GST-tagged TCPTP (unknown origin)

Row | Compound | IC50 [1] [µM] | inhibition [2] [%] | IC50 [3] [µM] | other results
1 | O=C(Nc1ccccc1)c1ccc(-c2ccc(C(=O)Nc3ccccc3)[nH]2)cc1 | 23.4 | < 50 |  | 
2 | O=C(Nc1ccccc1)c1ccc(-c2ccc(C(=O)Nc3ccccc3)s2)cc1 | 3.52 |  | 5.75 | 
3 | O=C(Nc1ccccc1)c1ccc(-c2ccc(C(=O)Nc3ccccc3)o2)cc1 | 3.48 |  | 4.63 | 
4 | O=C(Nc1ccc(F)cc1)c1ccc(-c2ncc(C(=O)Nc3ccc(F)cc3)s2)cc1 |  |  | 4.63 | inhibition [4]: < 50%
5 | O=C(Nc1ccc(F)cc1)c1ccc(-c2ccc(C(=O)Nc3ccc(F)cc3)s2)cc1 |  |  | 2.63 | inhibition [4]: < 50%; Ratio IC50 [5]: > 43.8; IC50 [6]: 9.16 µM; inhibition [7]: Active; inhibition [8]: Active; inhibition [9]: < 50%; inhibition [10]: Active; Ratio IC50 [11]: 4
6 | O=C(Nc1ccc(Cl)cc1)c1ccc(-c2ccc(C(=O)Nc3ccc(Cl)cc3)o2)cc1 | 15.7 | < 50 |  | 
7 | SODIUM ORTHOVANAD |  |  |  | Ratio IC50 [5]: 1.92
8 | O=C(Nc1ccc(F)cc1)c1ccc(-c2ccc(C(=O)Nc3ccc(F)cc3)[nH]2)cc1 | 28.3 |  | 20.3 | 
9 | O=C(NC1CCCCC1)c1ccc(-c2ccc(C(=O)NC3CCCCC3)o2)cc1 |  | < 50 |  | inhibition [4]: < 50%
10 | O=C(Nc1ccccc1)c1ccc(-c2ncc(C(=O)Nc3ccccc3)s2)cc1 | 7.94 | < 50 |  | 
11 | O=C(Nc1ccc(F)cc1)c1ccc(-c2ccc(C(=O)Nc3ccc(F)cc3)o2)cc1 | 10.5 | < 50 |  | 
12 | O=C(NC1CCCCC1)c1ccc(-c2ccc(C(=O)NC3CCCCC3)s2)cc1 | 4.88 |  | 10.7 | 
